Experimental data as given in patent US10604523B2, “1-aryl-4-methyl-[1,2,4]triazolo[4,3-a]quinoxaline derivatives” (Janssen Pharmaceutica NV, priority 2011, dated 2020).
Where two headings read alike, the source gives them in different places.

What was measured:
[1] = target: T1, Human recombinant PDE2A (hPDE2A) (Homo sapiens, UniProt O00408); test: In vitro assay PDE2A (SPA, 3H-cGMP); format: biochemical
T1 construct: made in house; host or cells: Sf9 insect cells (baculovirus)
Protocol: Tested compounds were dissolved and diluted in 100% DMSO to a concentration 100 fold of the final concentration in the assay. Compound dilutions (0.4 μl) were added in 384 well plates to 20 μl of incubation buffer (50 mM Tris pH 7.8, 8.3 mM MgCl2, 1.7 mM EGTA). 10 μl of hPDE2A enzyme in incubation buffer was added and the reaction was started by addition of 10 μl substrate to a final concentration of 10 μM cGMP and 0.01 μCi ^3H-cGMP. The reaction was incubated for 45 minutes at room temperature. […] After sedimentation of the beads during 30 minutes the radioactivity was measured in a Perkin Elmer Topcount scintillation counter and results were expressed as cpm. For blanc values the enzyme was omitted from the reaction and replaced by incubation buffer. Control values were obtained by addition of a final concentration of 1% DMSO instead of compound.

[2] = tested on: Apomorphine-induced agitation; test: Reversal of Apomorphine-induced Agitation in Rats (APO); format: in vivo, rat; conditions: for PO Max effect (cumulative agitation score over 60 min) / SC Max effect (cumulative agitation score over 60 min): apomorphine 1.0 mg/kg i.v.; for PO LAD (lowest active dose) / SC LAD (lowest active dose): lowest dose at which ≥67% tested animals respond; for SC Dose at max effect / SC Max effect (cumulative agitation score over 60 min) / SC LAD (lowest active dose): subcutaneous route
Protocol: Apomorphine (1.0 mg/kg, i.v.)-induced agitation was scored every 5 min over the first hour after injection of apomorphine. The score system was: (3) pronounced, (2) moderate, (1) slight, and (0) absent. […] For the present purpose, the cumulative agitation score over the whole 60-min observation period was used as a measure to describe the maximum effect (Max effect).

[3] = target: T2, Rat recombinant PDE10A (rPDE10A2) (Rattus norvegicus, UniProt Q9QYJ6); test: In vitro assay PDE10A (SPA, 3H-cAMP); format: biochemical
T2 construct: made in house; host or cells: Sf9 insect cells (baculovirus)
T2 sequence (Q9QYJ6 1-794): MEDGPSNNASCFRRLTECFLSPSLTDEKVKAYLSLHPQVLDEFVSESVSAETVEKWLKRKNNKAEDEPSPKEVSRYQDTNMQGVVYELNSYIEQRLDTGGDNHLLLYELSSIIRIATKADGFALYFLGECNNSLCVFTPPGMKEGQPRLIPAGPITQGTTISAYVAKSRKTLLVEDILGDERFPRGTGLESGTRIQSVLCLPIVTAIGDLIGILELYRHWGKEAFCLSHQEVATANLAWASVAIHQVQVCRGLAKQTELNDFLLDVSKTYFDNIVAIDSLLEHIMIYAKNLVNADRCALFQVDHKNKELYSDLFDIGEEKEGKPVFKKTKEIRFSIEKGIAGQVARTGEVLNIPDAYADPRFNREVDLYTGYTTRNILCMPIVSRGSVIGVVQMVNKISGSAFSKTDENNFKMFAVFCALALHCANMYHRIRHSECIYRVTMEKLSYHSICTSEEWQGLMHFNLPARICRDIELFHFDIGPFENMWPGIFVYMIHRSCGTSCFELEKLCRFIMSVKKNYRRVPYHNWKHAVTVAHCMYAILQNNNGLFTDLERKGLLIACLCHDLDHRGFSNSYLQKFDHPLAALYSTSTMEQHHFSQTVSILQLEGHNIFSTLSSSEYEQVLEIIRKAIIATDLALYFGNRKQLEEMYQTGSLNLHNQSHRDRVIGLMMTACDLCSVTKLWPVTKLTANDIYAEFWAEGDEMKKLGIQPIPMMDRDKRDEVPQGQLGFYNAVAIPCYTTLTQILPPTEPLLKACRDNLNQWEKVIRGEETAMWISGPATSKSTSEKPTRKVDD

[4] = read-out: pIC50 PDE2 (converted)
[5] = read-out: PIC50 PDE10 (converted)

T1 sequence (O00408 whole entry): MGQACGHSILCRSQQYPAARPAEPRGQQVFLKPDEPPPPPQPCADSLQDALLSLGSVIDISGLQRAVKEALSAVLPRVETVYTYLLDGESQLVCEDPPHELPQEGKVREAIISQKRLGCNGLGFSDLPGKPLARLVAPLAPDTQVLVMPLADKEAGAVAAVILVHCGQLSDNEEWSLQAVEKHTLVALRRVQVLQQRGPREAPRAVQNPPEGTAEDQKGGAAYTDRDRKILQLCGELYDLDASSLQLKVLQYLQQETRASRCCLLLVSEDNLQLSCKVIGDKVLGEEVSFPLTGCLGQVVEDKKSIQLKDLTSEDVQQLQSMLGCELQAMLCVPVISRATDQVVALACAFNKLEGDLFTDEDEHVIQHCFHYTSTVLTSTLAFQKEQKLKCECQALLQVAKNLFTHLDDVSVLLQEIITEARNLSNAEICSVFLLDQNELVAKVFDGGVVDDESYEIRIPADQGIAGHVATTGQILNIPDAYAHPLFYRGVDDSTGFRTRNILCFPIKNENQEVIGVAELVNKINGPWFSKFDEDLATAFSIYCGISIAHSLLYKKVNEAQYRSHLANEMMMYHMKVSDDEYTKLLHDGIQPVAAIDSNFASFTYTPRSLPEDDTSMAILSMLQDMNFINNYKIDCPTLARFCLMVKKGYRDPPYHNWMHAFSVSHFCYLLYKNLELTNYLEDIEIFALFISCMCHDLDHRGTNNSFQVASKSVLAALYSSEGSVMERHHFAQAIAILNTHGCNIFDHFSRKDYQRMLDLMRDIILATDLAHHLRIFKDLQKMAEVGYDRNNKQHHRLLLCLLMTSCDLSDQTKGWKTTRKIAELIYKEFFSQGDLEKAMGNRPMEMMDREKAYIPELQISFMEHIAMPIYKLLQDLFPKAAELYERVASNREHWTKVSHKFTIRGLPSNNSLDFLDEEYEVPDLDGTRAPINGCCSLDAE

| Structure (SMILES) | IC50 [1, 4] [nM] | IC50 [3, 5] [nM] | IC50 ([3]; -log IC50 expressed in mol/L, rPDE10A2, 60 nM cAMP, read-out: PIC50 PDE10 (converted)) [nM] | PO Dose at Max Effect [2] [mg/kg] | PO Max effect (cumulative agitation score over 60 min) [2] | PO LAD (lowest active dose) [2] [mg/kg] | SC Dose at max effect [2] [mg/kg] | SC Max effect (cumulative agitation score over 60 min) [2] | SC LAD (lowest active dose) [2] [mg/kg] | IC50 [1] [nM] | IC50 [3] [nM] |
| --- | --- | --- | --- | --- | --- | --- | --- | --- | --- | --- | --- |
| C=Cc1ccc2nc(C)c3nnc(-c4ccccc4Cl)n3c2c1 [Compound B-14, 1-(2-Chlorophenyl)-8-ethenyl-4-methyl[1,2,4]triazolo[4,3-a]quinoxaline] | 7.08 | 37.2 | – | 10 | 21 | > 10 | – | – | – | – | – |
| Cc1nc2ccc(OCCc3ccccn3)cc2n2c(-c3ccccc3Cl)nnc12 [Compound B-15, 1-(2-Chlorophenyl)-4-methyl-8-(2-pyridin-2-ylethoxy) [1,2,4]triazolo[4,3-a]quinoxaline] | 8.71 | 16.2 | – | – | – | – | 10 | 10 | 2.5 | – | – |
| Cc1nc2ccc(N3CCN(C)CC3)cc2n2c(-c3ccccc3Cl)nnc12 [Compound B-16, 1-(2-Chlorophenyl)-4-methyl-8-(4-methylpiperazin-1-yl)[1,2,4]triazolo[4,3-a]quinoxaline] | 5.25 | 26.9 | – | – | – | – | 2.5 | 21 | > 2.5 | – | – |
| Cc1nc2ccc(OC(C)(F)F)cc2n2c(-c3ccccc3Cl)nnc12 [Compound B-25, 1-(2-Chlorophenyl)-8-(1,1-difluoroethoxy)-4-methyl[1,2,4]triazolo[4,3-a]-quinoxaline] | 3.89 | 15.5 | – | 10 | 19 | 10 | – | – | – | – | – |
| Cc1nc2ccc(C(=O)NCc3ccccn3)cc2n2c(-c3cc(F)ccc3Cl)nnc12 [Compound B-39] | 1 | 24 | – | 10 | 21 | > 10 | – | – | – | – | – |
| Cc1nc2ccc(C(=O)NCCO)cc2n2c(-c3ccccc3Cl)nnc12 [Compound B-42] | 1.51 | 29.5 | – | 10 | 22 | > 10 | – | – | – | – | – |
| Cc1nc2ccc(C(=O)NCCN3CCCCC3)cc2n2c(-c3ccccc3Cl)nnc12 [Compound B-45] | 1.95 | 74.1 | – | – | – | – | 10 | 21 | > 10 | – | – |
| CNC(=O)c1ccc2nc(C)c3nnc(-c4ccccc4Cl)n3c2c1 [Compound B-46] | 1.95 | 20 | – | 10 | 21 | > 10 | – | – | – | – | – |
| Cc1nc2ccc(C(=O)NC3CCN(C)CC3)cc2n2c(-c3ccccc3Cl)nnc12 [Compound B-47] | 2.04 | 145 | – | – | – | – | 10 | 22 | > 10 | – | – |
| COc1cc(NC(=O)c2ccc3nc(C)c4nnc(-c5ccccc5Cl)n4c3c2)cc(OC)c1OC [Compound B-49] | 2.34 | 77.6 | – | 10 | 24 | > 10 | – | – | – | – | – |
| Cc1nc2ccc(CNc3cccnc3)cc2n2c(-c3ccccc3Cl)nnc12 [Compound B-50] | 2.34 | 11 | – | – | – | – | 10 | 22 | > 10 | – | – |
| CCNC(=O)c1ccc2nc(C)c3nnc(-c4ccccc4F)n3c2c1 [Compound B-51] | 2.51 | – | 155 | 10 | 21 | > 10 | – | – | – | – | – |
| COc1ccccc1-c1nnc2c(C)nc3ccc(C(=O)NCc4ccccn4)cc3n12 [Compound B-53] | 3.09 | 37.2 | – | 10 | 24 | > 10 | – | – | – | – | – |
| Cc1nc2ccc(C(=O)NCCc3ccccc3)cc2n2c(-c3ccccc3)nnc12 [Compound B-54] | 3.47 | 93.3 | – | 2.5 | 22 | > 2.5 | – | – | – | – | – |
| Cc1nc2ccc(CN3CCOC(CO)C3)cc2n2c(-c3ccccc3Cl)nnc12 (stereo not drawn) [Compound B-55] | – | – | – | – | – | – | 10 | 22 | > 10 | 3.47 | 10.7 |
| Cc1nc2ccc(NCCc3ccccn3)cc2n2c(-c3ccccc3Cl)nnc12 [Compound B-60] | 5.01 | 6.61 | – | 10 | 21 | > 10 | – | – | – | – | – |
| Cc1nc2ccc(CN3CCC(F)CC3)cc2n2c(-c3ccccc3Cl)nnc12 [Compound B-61] | 5.5 | 20 | – | – | – | – | 10 | 15 | 10 | – | – |
| Cc1nc2ccc(CN3CCOC(CCO)C3)cc2n2c(-c3ccccc3Cl)nnc12 (stereo not drawn) [Compound B-63] | 5.62 | 9.33 | – | – | – | – | 10 | 19 | 10 | – | – |

The next lines start with results.

| IC50 [1, 4] [nM] | IC50 [3, 5] [nM] | IC50 ([3]; -log IC50 expressed in mol/L, rPDE10A2, 60 nM cAMP, read-out: PIC50 PDE10 (converted)) [nM] | Structure (SMILES) | PO Dose at Max Effect [2] [mg/kg] | PO Max effect (cumulative agitation score over 60 min) [2] | PO LAD (lowest active dose) [2] [mg/kg] | SC Dose at max effect [2] [mg/kg] | SC Max effect (cumulative agitation score over 60 min) [2] | SC LAD (lowest active dose) [2] [mg/kg] | IC50 [1] [nM] | IC50 [3] [nM] |
| --- | --- | --- | --- | --- | --- | --- | --- | --- | --- | --- | --- |
| 2 | 45.7 | – | Cc1nc2ccc(O)cc2n2c(-c3ccccc3Cl)nnc12 [Compound B-13, 1-(2-Chlorophenyl)-4-methyl[1,2,4]triazolo[4,3-a]quinoxalin-8-ol] | 10 | 19 | 10 | – | – | – | – | – |
| 6.46 | 41.7 | – | Cc1nc2ccc(C(O)C(F)(F)F)cc2n2c(-c3ccccc3Cl)nnc12 (stereo not drawn) [Compound B-21, 1-[1-(2-Chlorophenyl)-4-methyl[1,2,4]triazolo[4,3-a]quinoxalin-8-yl]-2,2,2-trifluoroethanol] | 10 | 24 | > 10 | – | – | – | – | – |
| 0.251 | 6.61 | – | Cc1nc2ccc(C(=O)NCc3cccc(F)n3)cc2n2c(-c3ccccc3Cl)nnc12 [Compound B-32] | 10 | 22 | > 10 | – | – | – | – | – |
| 0.372 | 12 | – | Cc1nc2ccc(C(=O)NCc3ccccc3)cc2n2c(-c3ccccc3Cl)nnc12 [Compound B-34] | 2.5 | 22 | > 2.5 | – | – | – | – | – |
| 0.724 | 25.1 | – | Cc1nc2ccc(C(=O)NCCc3ccccc3)cc2n2c(-c3ccccc3Cl)nnc12 [Compound B-38] | 2.5 | 19 | 2.5 | – | – | – | – | – |
| 1.02 | 18.6 | – | Cc1nc2ccc(C(=O)NCCF)cc2n2c(-c3ccccc3Cl)nnc12 [Compound B-40] | 10 | 22 | > 10 | – | – | – | – | – |
| 1.62 | 43.7 | – | COc1ccc(Cl)c(-c2nnc3c(C)nc4ccc(C(=O)NCc5ccccn5)cc4n23)c1 [Compound B-43] | 10 | 19 | 10 | – | – | – | – | – |
| 1.78 | 35.5 | – | Cc1ccc(Cl)c(-c2nnc3c(C)nc4ccc(C(=O)NCc5ccccn5)cc4n23)c1 [Compound B-44] | 10 | 21 | > 10 | – | – | – | – | – |
| 2.09 | 61.7 | – | Cc1nc2ccc(C(=O)NCCN3CCCC3)cc2n2c(-c3ccccc3Cl)nnc12 [Compound B-48] | – | – | – | 10 | 24 | > 10 | – | – |
| 3.98 | 44.7 | – | Cc1nc2ccc(C(=O)NCc3cccnc3)cc2n2c(-c3ccccc3)nnc12 [Compound B-56] | 10 | 21 | > 10 | – | – | – | – | – |
| 4.9 | 23.4 | – | Cc1nc2ccc(CN3CCOC(CF)C3)cc2n2c(-c3ccccc3Cl)nnc12 (stereo not drawn) [Compound B-59] | – | – | – | 10 | 15 | 10 | – | – |
| 5.89 | 37.2 | – | COc1cc(CNC(=O)c2ccc3nc(C)c4nnc(-c5ccccc5Cl)n4c3c2)cc(OC)c1OC [Compound B-66] | 10 | 21 | > 10 | – | – | – | – | – |
